What was measured:
[1] = test system: HuCCT1 (Biliary Tract Carcinoma); experiment: combination Emax (second highest fraction inhibited in the dose matrix, 72 h); higher = more inhibition; extreme values may be limits of the assay
Method in brief: (§1)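 Cell lines in DMEM/F12 or RPMI with 10% FBS were plated in 1536-well plates, held 24 hours at 37°C, 5% CO2, then given two-drug dose matrices for 72 hours (DMSO typically 0.2%). Viability was read by CellTiter-Glo 2.0 luminescence and scaled as inhibition from 0 (vehicle wells) to 1 (blank wells). Combination Emax is the second-highest inhibition in the matrix; Bliss excess is observed combination effect minus expected EA + EB − EA·EB, EA and EB being single-agent effects.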

[2] = test system: BE-13 (T-Lymphoblastic Leukemia); experiment: as above
Method in brief: as §1

[3] = test system: ALL-PO (B-Lymphoblastic Leukemia); experiment: as above
Method in brief: as §1

[4] = test system: SNU-16 (Gastric Carcinoma); experiment: as above
Method in brief: as §1

[5] = test system: HeLa (Cervical Carcinoma); experiment: as above
Method in brief: as §1

[6] = test system: FTC-133 (Thyroid Gland Carcinoma); experiment: as above
Method in brief: as §1

[7] = test system: KS-1 (Glioblastoma); experiment: as above
Method in brief: as §1

[8] = test system: KYAE-1 (Esophageal Adenocarcinoma); experiment: as above
Method in brief: as §1

[9] = test system: NCI-H2052 (Mesothelioma); experiment: as above
Method in brief: as §1

[10] = test system: Detroit562 (Head and Neck Carcinoma); experiment: as above
Method in brief: as §1

[11] = test system: SNU-449 (Hepatocellular Carcinoma); experiment: as above
Method in brief: as §1

[12] = test system: MHH-CALL-2 (B-Lymphoblastic Leukemia); experiment: as above
Method in brief: as §1

[13] = test system: BFTC-909 (Kidney Carcinoma); experiment: as above
Method in brief: as §1

[14] = test system: EW-11 (Ewing's Sarcoma); experiment: as above
Method in brief: as §1

[15] = test system: NUGC-4 (Gastric Carcinoma); experiment: as above
Method in brief: as §1

[16] = test system: OVCAR-5 (Ovarian Carcinoma); experiment: Bliss excess, mean over the matrix (fraction); higher = more synergy
Method in brief: as §1

[17] = test system: LS-123 (Colorectal Carcinoma); experiment: as above
Method in brief: as §1

[18] = test system: KYAE-1 (Esophageal Adenocarcinoma); experiment: as above
Method in brief: as §1

[19] = test system: NCI-H2052 (Mesothelioma); experiment: as above
Method in brief: as §1

[20] = test system: MHH-CALL-2 (B-Lymphoblastic Leukemia); experiment: as above
Method in brief: as §1
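Wherever Bliss excess, mean over the matrix is given: after 72 h of two-drug dosing.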

| Structure (SMILES) | combination Emax [1] | combination Emax [2] | combination Emax [3] | combination Emax [4] | combination Emax [5] | combination Emax [6] | combination Emax [7] | combination Emax [8] | combination Emax [9] | combination Emax [10] | combination Emax [11] | combination Emax [12] | combination Emax [13] | combination Emax [14] | combination Emax [15] | Bliss excess [16] | Bliss excess [17] | Bliss excess [18] | Bliss excess [19] | Bliss excess [20] |
| --- | --- | --- | --- | --- | --- | --- | --- | --- | --- | --- | --- | --- | --- | --- | --- | --- | --- | --- | --- | --- |
| Cc1c2c(nn1C)CSCc1cc(n(C)n1)CSc1cc(c3ccccc3c1)OCCCc1c(C(=O)O)n(C)c3c-2c(Cl)ccc13 [AZD5991] + C[C@@H](Nc1cc(F)cc(F)c1)c1cc(C(=O)N(C)C)cc2c(=O)cc(N3CCOCC3)oc12 [AZD8186] (first compound max 1 µM, 7x7, partner max 3 µM) | 0.4 | 0.384 | 1 | 0.986 | 0.614 | 0.667 | 0.416 | 0.209 | 0.374 | 0.305 | 0.216 | 0.989 | 0.3 | 0.906 | 0.374 | -0.0106 | -0.0006 | -0.0125 | 0.0011 | -0.0188 |
| Cc1c2c(nn1C)CSCc1cc(n(C)n1)CSc1cc(c3ccccc3c1)OCCCc1c(C(=O)O)n(C)c3c-2c(Cl)ccc13 [AZD5991] + Cc1cc2ncnn2cc1Nc1ncc2c(n1)n(C1CCOCC1)c(=O)n2C [AZD7648] (first compound max 1 µM, 7x7, partner max 10 µM) | 0.406 | 0.406 | 1 | 0.999 | 0.485 | 0.649 | 0.253 | 0.194 | 0.394 | 0.422 | 0.238 | 1 | 0.292 | 0.837 | 0.279 | -0.0913 | -0.0378 | -0.0285 | -0.0556 | -0.011 |
| CS(=O)(=O)CCNCc1ccc(-c2ccc3ncnc(Nc4ccc(OCc5cccc(F)c5)c(Cl)c4)c3c2)o1 [Lapatinib] + C[C@@H](Oc1cc(-c2cnn(C3CCNCC3)c2)cnc1N)c1c(Cl)ccc(F)c1Cl [Crizotinib] (first compound max 10 µM, 7x7, partner max 10 µM) | 0.883 | 0.988 | 1 | 0.973 | 0.859 | 0.84 | 0.79 | 0.842 | 0.61 | 1 | 0.827 | 1 | 0.869 | 0.936 | 0.808 | -0.0818 | -0.0052 | -0.0171 | -0.0676 | 0.0219 |
| CC1(C)CCC(CN2CCN(c3ccc(C(=O)NS(=O)(=O)c4ccc(NCC5CCOCC5)c([N+](=O)[O-])c4)c(Oc4cnc5[nH]ccc5c4)c3)CC2)=C(c2ccc(Cl)cc2)C1 [Venetoclax] + Cc1cc2ncnn2cc1Nc1ncc2c(n1)n(C1CCOCC1)c(=O)n2C [AZD7648] (first compound max 1 µM, 7x7, partner max 10 µM) | 0.284 | 0.529 | 0.613 | 0.223 | 0.199 | 0.182 | 0.294 | 0.176 | 0.381 | 0.304 | 0.229 | 0.17 | 0.294 | 0.558 | 0.232 | -0.075 | -0.0543 | -0.0128 | -0.0019 | -0.0228 |
| Cc1c2c(nn1C)CSCc1cc(n(C)n1)CSc1cc(c3ccccc3c1)OCCCc1c(C(=O)O)n(C)c3c-2c(Cl)ccc13 [AZD5991] + C=CCn1c(=O)c2cnc(Nc3ccc(N4CCN(C)CC4)cc3)nc2n1-c1cccc(C(C)(C)O)n1 [AZD1775] (first compound max 1 µM, partner max 1 µM) | 0.759 | 1 | 1 | 1 | 0.841 | 0.956 | 0.464 | 0.668 | 0.346 | 0.749 | 0.302 | 1 | 0.944 | 0.863 | 0.47 | -0.0096 | -0.0197 | -0.0078 | -0.0875 | 0.0108 |
| NC1(C(=O)N[C@@H](CCO)c2ccc(Cl)cc2)CCN(c2ncnc3[nH]ccc23)CC1 [Capivasertib] + Cn1cnc2c(F)c(Nc3ccc(Br)cc3Cl)c(C(=O)NOCCO)cc21 [Selumetinib] (first compound max 10 µM, 7x7, partner max 10 µM) | 0.717 | 0.276 | 0.726 | 0.461 | 0.253 | 0.608 | 0.551 | 0.13 | 0.443 | 0.798 | 0.205 | 0.582 | 0.734 | 0.453 | 0.329 | -0.028 | 0.0583 | -0.0064 | -0.0031 | 0.156 |
| Cc1c2c(nn1C)CSCc1cc(n(C)n1)CSc1cc(c3ccccc3c1)OCCCc1c(C(=O)O)n(C)c3c-2c(Cl)ccc13 [AZD5991] + C1CN(CCC1(C(=O)N[C@@H](CCO)C2=CC=C(C=C2)Cl)N)C3=NC=NC4=C3C=CN4 [Capivasertib] (first compound max 1 µM, 7x7, partner max 3 µM) | 0.162 | 0.38 | 1 | 0.996 | 0.671 | 0.663 | 0.338 | 0.334 | 0.265 | 0.325 | 0.182 | 1 | 0.446 | 0.897 | 0.215 | -0.0337 | 0.0203 | -0.0194 | -0.0083 | 0.0182 |
| COc1nnc2ccc(N3CCC(c4ccc(OCCN5CCN(C)C(=O)[C@H]5C)cc4)CC3)nn12 [AZD5153] + Cn1cnc2c(F)c(Nc3ccc(Br)cc3Cl)c(C(=O)NOCCO)cc21 [Selumetinib] (first compound max 1 µM, 7x7, partner max 10 µM) | 0.826 | 0.672 | 0.88 | 0.902 | 0.411 | 0.592 | 0.645 | 0.116 | 0.403 | 0.792 | 0.243 | 0.432 | 0.488 | 0.424 | 0.831 | -0.0429 | 0.0261 | -0.004 | 0.0301 | -0.0438 |
| COc1nnc2ccc(N3CCC(c4ccc(OCCN5CCN(C)C(=O)[C@H]5C)cc4)CC3)nn12 [AZD5153] + CCN(CCO)CCCOc1ccc2c(Nc3cc(CC(=O)Nc4cccc(F)c4)[nH]n3)ncnc2c1 [AZD2811] (first compound max 1 µM, 7x7, partner max 1 µM) | 0.498 | 0.92 | 1 | 0.868 | 0.433 | 0.678 | 0.641 | 0.0877 | 0.395 | 0.892 | 0.298 | 0.5 | 0.535 | 0.452 | 0.557 | -0.0781 | -0.0004 | -0.0092 | -0.0479 | 0.0191 |
| Cn1cnc2c(F)c(Nc3ccc(Br)cc3Cl)c(C(=O)NOCCO)cc21 [Selumetinib] + CCN(CCO)CCCOc1ccc2c(Nc3cc(CC(=O)Nc4cccc(F)c4)[nH]n3)ncnc2c1 [AZD2811] (first compound max 10 µM, 7x7, partner max 1 µM) | 0.525 | 0.735 | 1 | 0.561 | 0.171 | 0.415 | 0.298 | 0.0661 | 0.232 | 0.743 | 0.221 | 0.888 | 0.314 | 0.199 | 0.472 | -0.0054 | 0.0199 | -0.0212 | -0.0388 | 0.306 |
| CC(=O)Nc1cccc(-n2c(=O)n(C3CC3)c(=O)c3c(Nc4ccc(I)cc4F)n(C)c(=O)c(C)c32)c1 [Trametinib] + Cc1nc(-c2cn3c(n2)-c2ccc(-c4cnn(C(C)(C)C(N)=O)c4)cc2OCC3)n(C(C)C)n1 [Taselisib] (first compound max 1 µM, 7x7, partner max 10 µM) | 0.803 | 0.168 | 0.795 | 0.955 | 0.42 | 0.338 | 0.832 | 0.893 | 0.535 | 0.954 | 0.559 | 0.662 | 0.781 | 0.676 | 0.554 | 0.105 | 0.0939 | 0.0462 | -0.0231 | 0.188 |
| CC1(C)CCC(CN2CCN(c3ccc(C(=O)NS(=O)(=O)c4ccc(NCC5CCOCC5)c([N+](=O)[O-])c4)c(Oc4cnc5[nH]ccc5c4)c3)CC2)=C(c2ccc(Cl)cc2)C1 [Venetoclax] + CCN(CCO)CCCOc1ccc2c(Nc3cc(CC(=O)Nc4cccc(F)c4)[nH]n3)ncnc2c1 [AZD2811] (first compound max 1 µM, 7x7, partner max 1 µM) | 0.217 | 0.881 | 1 | 0.523 | 0.279 | 0.495 | 0.341 | 0.163 | 0.181 | 0.52 | 0.239 | 0.292 | 0.215 | 0.517 | 0.166 | -0.0482 | -0.0437 | -0.0002 | -0.0112 | -0.01 |

Source: the supplement of paper PMC11061612
